The IC50 is the concentration that gives 50% inhibition. What is called EC50 is the concentration at which the effect is half-maximal. High values mean weaker potency, low ones greater potency.

The results in this text go back to ChEMBL document CHEMBL5532707, “SETDB1 as a cancer target: challenges and perspectives in drug design” (RSC Med Chem, 2024).

One experiment is described as follows: cells. Conditions: Homo sapiens, MDA-MB-231, 48 h.
For a further experiment, the system named is MDA-MB-231. Kind of experiment: Antiproliferative activity against human MDA-MB-231 cells by MTT assay. It is filed as functional, cell-based.

Structures are written as SMILES.

Description for cells: Downregulation of H3K9me2 level in human MDA-MB-231 cells measured after 48 hrs by Western blot analysis

Regarding `COc1cc2c(NC3CCN(C(C)C)CC3)nc(C3CCCCC3)nc2cc1OCCCN1CCCC1`, the 50% inhibitory concentration (IC50) in “cells” is 0.081 µM.

For the compound `COc1cc2nc(N3CCCN(C)CC3)nc(NC3CCN(Cc4ccccc4)CC3)c2cc1OC`, in the experiment with MDA-MB-231, the EC50 was 2.7 µM. For the same compound, half-maximal inhibition in “cells” (IC50) was put at 0.5 µM.
